According to US20100173780A1, “POLYPHENOL-CONTENT-[…] FOR PLANT” (COSMO OIL CO., LTD., priority 2006, published 2010):

What was measured:
green soybean = assay: Amount of polyphenol in green soybean after ALA treatment (HPLC); format: in vivo, green soybean (Lagminosae, genus soybean, race Hakusan); conditions: 1 ppm, 100 L/tan once a fortnight after flowering
Method: (§1) Two containers (length: 0.75 m, width 0.5 m) were provided and soil was placed in each of them. A Chemical fertilizer (nitrogen content:phosphorus content:potassium content=15:15:15 as mass ratio) was used as a base fertilizer and young plants of green pepper (Solanaceae, genus cayenne, race Miogi) were grown for two months according to a conventional method. Water was applied to the young plants once a day by means of a sprinkling can. Prior to one month from harvest, treatment was conducted once a week with 50 mL per container of each aqueous solution containing 0 ppm (control) or 1 ppm of 5-aminolevulinic acid hydrochloride to which a spreading agent, Approach BI (manufactured by Kao Corporation) had been added in a ratio of 0.1% by mass. After harvest, 3 g of green pepper was finely cut with scissors and a kitchen knife and then homogenized after addition of water. The homogenized one was diluted up to 6 mL with distilled water (stock solution) and the stock solution was divided into three even portions and used in the following extraction methods (1) to (3). (1) Three mL of ethyl acetate was added to 2 mL of the stock solution and the resultant one was centrifuged at 3000 rpm for 10 minutes. The supernatant was transferred to a spit tube and was evaporated to dryness with nitrogen gas while the tube was immersed in a warm bath at about 60° C. Thereto were added 200 μL of methanol and 100 μL of distilled water, thereby the volume being made 300 μL. (2) Two mL of methanol was added to 2 mL of the stock solution and the resultant one was centrifuged at 3000 rpm for 10 minutes. The supernatant was transferred to a spit tube and was evaporated to dryness with nitrogen gas while the tube was immersed in a warm bath at about 60° C. Thereto were added 200 μL of methanol and 100 μL of distilled water, thereby the volume being made 300 μL. (3) One mL of 0.1N hydrochloric acid was added to 2 mL of the stock solution and the resultant one was transferred to a plastic tube and kept in a drive-lock bath at 96.5° C. for 1 hour to effect hydrolysis. Five mL of ethyl acetate was added thereto and the resultant one was centrifuged at 3000 rpm for 10 minutes. The supernatant was transferred to a spit tube and was evaporated to dryness with nitrogen gas while the tube was immersed in a warm bath at about 60° C. Thereto were added 200 μL of methanol and 100 μL of distilled water, thereby the volume being made 300 μL. The samples from (1) to (3) were measured by high-performance liquid chromatography (HPLC) (analytical conditions: the measurement was performed at a flow rate of 1.0 mL/min at a column temperature of 40° C. using a wavelength of 350 nm, using Liquid A (80% by volume of methanol/5% by volume of acetic acid) or Liquid B (10% by volume of methanol/5% by volume of acetic acid) as an eluent, and using a column of Hichrom5C18, T898, 4.6 mm×[…] (manufactured by LLOYD′S REGISTER QUALITY COMPANY) and each concentration was calculated based on standard solutions. In Table 1, the most highly extracted value was cited among the results measured with each of the extraction methods (1) to (3). Moreover, the sum of individual concentration of polyphenol used in this time was regarded as the total amount of polyphenol.
Prior to 210 days from harvest, treatment to green soybean (Lagminosae, genus soybean, race Hakusan) grown in a production farm field was conducted once a fortnight after flowering with a spraying amount of 100 L/tan of each aqueous solution containing 0 ppm (control) or 1 ppm of 5-aminolevulinic acid hydrochloride. After harvest, the content of polyphenol was analyzed by HPLC in the same manner as in Example 1.

pear = assay: Amount of polyphenol in pear after ALA treatment (HPLC); format: in vivo, pear (Rosaceae, genus pear, race Kosui); conditions: 3 ppm
Method: as §1
Prior to 150 days from harvest, treatment to pear
([…], genus pear, race Kosui) grown in a production farm field was conducted once a fortnight with a spraying amount of 300 L/tan of each aqueous solution containing 0 ppm (control) or 3 ppm of 5-aminolevulinic acid hydrochloride to which a spreading agent, Approach BI (manufactured by Kao Corporation) had been added in a ratio of 0.1% by mass. After harvest, the content of polyphenol was analyzed by HPLC in the same manner as in Example 1.

tea = assay: Amount of polyphenol in tealeaf after ALA treatment (HPLC); format: in vivo, tea (Camelliaceae, genus camellia, race Yabukita); conditions: 3 ppm
Method: as §1
Prior to 210 days from harvest, treatment to tea (Camelliaceae, genus camellia, race Yabukita) grown in a production farm field was conducted once a month with a spraying amount of 100 L/tan of each aqueous solution containing 0 ppm (control) or 3 ppm of 5-aminolevulinic acid hydrochloride. After harvest, the content of polyphenol was analyzed by HPLC in the same manner as in Example 1.

[1] = 300 L/tan once a fortnight from 150 days before harvest, HPLC
[2] = 100 L/tan once a month from 210 days before harvest, HPLC

Cl.NCC(=O)CCC(=O)O [ALA, 5-aminolevulinic acid hydrochloride]
Apigenin amount in green soybean (green soybean; HPLC): 11 ng/g
Caffeic acid amount in green soybean (green soybean; HPLC): 0 ng/g
Chlorogenic acid amount in green soybean (green soybean; HPLC): 17 ng/g
Ferulic acid amount in green soybean (green soybean; HPLC): 3963 ng/g
Hesperetin amount in green soybean (green soybean; HPLC): 1841 ng/g
Isorhamnetin amount in green soybean (green soybean; HPLC): 0 ng/g
Kaempferol amount in green soybean (green soybean; HPLC): 0 ng/g
Luteolin amount in green soybean (green soybean; HPLC): 19 ng/g
Quercetin amount in green soybean (green soybean; HPLC): 261 ng/g
Rutin amount in green soybean (green soybean; HPLC): 1032 ng/g
Total amount of polyphenol in green soybean (green soybean; sum of the individual polyphenols): 7143 ng/g
ALA/control ratio of total amount of polyphenol in green soybean (green soybean; versus 0 ppm control): 1.4
Apigenin amount in pear (pear; [1]): 95 ng/g
Caffeic acid amount in pear (pear; [1]): 8400 ng/g
Chlorogenic acid amount in pear (pear; [1]): 1819 ng/g
Ferulic acid amount in pear (pear; [1]): 12456 ng/g
Hesperetin amount in pear (pear; [1]): 81 ng/g
Isorhamnetin amount in pear (pear; [1]): 567 ng/g
Kaempferol amount in pear (pear; [1]): 18 ng/g
Luteolin amount in pear (pear; [1]): 61 ng/g
Quercetin amount in pear (pear; [1]): 111 ng/g
Rutin amount in pear (pear; [1]): 1595 ng/g
Total amount of polyphenol in pear (pear; 300 L/tan once a fortnight from 150 days before harvest, sum of the individual polyphenols): 25202 ng/g
ALA/control ratio of total amount of polyphenol in pear (pear; 300 L/tan once a fortnight, versus 0 ppm control): 2.3
Apigenin amount in tealeaf (tea; [2]): 915 ng/g
Caffeic acid amount in tealeaf (tea; [2]): 0 ng/g
Chlorogenic acid amount in tealeaf (tea; [2]): 3474 ng/g
Ferulic acid amount in tealeaf (tea; [2]): 17172 ng/g
Hesperetin amount in tealeaf (tea; [2]): 25887 ng/g
Isorhamnetin amount in tealeaf (tea; [2]): 3881 ng/g
Kaempferol amount in tealeaf (tea; [2]): 970 ng/g
Luteolin amount in tealeaf (tea; [2]): 2181 ng/g
Quercetin amount in tealeaf (tea; [2]): 8249 ng/g
Rutin amount in tealeaf (tea; [2]): 4519 ng/g
Total amount of polyphenol in tealeaf (tea; 100 L/tan once a month from 210 days before harvest, sum of the individual polyphenols): 67248 ng/g
ALA/control ratio of total amount of polyphenol in tealeaf (tea; 100 L/tan once a month, versus 0 ppm control): 1.1
